Measured values taken from the supplement of paper PMC11451515.

Tested on: NOMO1
Assay: cell viability relative to DMSO control; higher = less cytotoxic
Details: 48 h
Procedure, shortened: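 Viability values are per-plate percentages of DMSO wells, with background from cell-free wells. Library compounds in DMSO were pin-dosed, in an 11-point threefold series from 47 μM to 0.79 nM, onto NOMO1 or SEM (500 cells/well) or P12-Ichikawa (1000 cells/well) leukemia cells in 1536-well plates (5 μl). Those cells had been adapted for at least four passages in each medium, and CellTiter-Glo One luminescence was read after 48 h at 37°C.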

[1] = HPLM + 10% dialyzed FBS, 0.000781 µM
[2] = HPLM + 10% dialyzed FBS, 0.00234 µM
[3] = HPLM + 10% dialyzed FBS, 0.00702 µM
[4] = HPLM + 10% dialyzed FBS, 0.0211 µM
[5] = HPLM + 10% dialyzed FBS, 0.0632 µM
[6] = HPLM + 10% dialyzed FBS, 0.19 µM
[7] = HPLM + 10% dialyzed FBS, 0.569 µM
[8] = HPLM + 10% dialyzed FBS, 1.71 µM
[9] = HPLM + 10% dialyzed FBS, 5.12 µM
[10] = HPLM + 10% dialyzed FBS, 15.4 µM
[11] = HPLM + 10% dialyzed FBS, 46.1 µM
[12] = RPMI 5 mM glucose + 10% FBS, 0.000781 µM
[13] = RPMI 5 mM glucose + 10% FBS, 0.00234 µM
[14] = RPMI 5 mM glucose + 10% FBS, 0.00702 µM
[15] = RPMI 5 mM glucose + 10% FBS, 0.0211 µM
[16] = RPMI 5 mM glucose + 10% FBS, 0.0632 µM
[17] = RPMI 5 mM glucose + 10% FBS, 0.19 µM
[18] = RPMI 5 mM glucose + 10% FBS, 0.569 µM
[19] = RPMI 5 mM glucose + 10% FBS, 1.71 µM
[20] = RPMI 5 mM glucose + 10% FBS, 5.12 µM
[21] = RPMI 5 mM glucose + 10% FBS, 15.4 µM
[22] = RPMI 5 mM glucose + 10% FBS, 46.1 µM
[23] = RPMI 5 mM glucose + 10% dialyzed FBS, 0.000781 µM
[24] = RPMI 5 mM glucose + 10% dialyzed FBS, 0.00234 µM
[25] = RPMI 5 mM glucose + 10% dialyzed FBS, 0.00702 µM
[26] = RPMI 5 mM glucose + 10% dialyzed FBS, 0.0211 µM
[27] = RPMI 5 mM glucose + 10% dialyzed FBS, 0.0632 µM
[28] = RPMI 5 mM glucose + 10% dialyzed FBS, 0.19 µM
[29] = RPMI 5 mM glucose + 10% dialyzed FBS, 0.569 µM
[30] = RPMI 5 mM glucose + 10% dialyzed FBS, 1.71 µM
[31] = RPMI 5 mM glucose + 10% dialyzed FBS, 5.12 µM
[32] = RPMI 5 mM glucose + 10% dialyzed FBS, 15.4 µM
[33] = RPMI 5 mM glucose + 10% dialyzed FBS, 46.1 µM

Structure (SMILES) | cell viability [1] [%] | cell viability [2] [%] | cell viability [3] [%] | cell viability [4] [%] | cell viability [5] [%] | cell viability [6] [%] | cell viability [7] [%] | cell viability [8] [%] | cell viability [9] [%] | cell viability [10] [%] | cell viability [11] [%] | cell viability [12] [%] | cell viability [13] [%] | cell viability [14] [%] | cell viability [15] [%] | cell viability [16] [%] | cell viability [17] [%] | cell viability [18] [%] | cell viability [19] [%] | cell viability [20] [%] | cell viability [21] [%] | cell viability [22] [%] | cell viability [23] [%] | cell viability [24] [%] | cell viability [25] [%] | cell viability [26] [%] | cell viability [27] [%] | cell viability [28] [%] | cell viability [29] [%] | cell viability [30] [%] | cell viability [31] [%] | cell viability [32] [%] | cell viability [33] [%]
CNC(=O)c1ccc2c(c1)NC(=O)/C2=C(\Nc1cccc(CN(C)C)c1)c1ccccc1 | 85.5 | 109 | 103 | 100 | 99.9 | 106 | 95 | 91.9 | 45.9 | 63.4 | 0.559 | 93.7 | 84.5 | 93.6 | 94.9 | 93.1 | 93.3 | 95.1 | 87.2 | 80 | 66.5 | 1.26 | 74.6 | 91.7 | 90.5 | 90.7 | 80 | 98.9 | 90.3 | 89.1 | 75.9 | 57.7 | 1.81
CC(C)(N)c1ccc(-c2nc3ccccc3nc2-c2ccccc2)cc1 | 112 | 118 | 109 | 68.5 | 27.3 | 22.3 | 12.2 | 8.51 | 7.84 | 5.77 | 5.3 | 96.1 | 116 | 112 | 111 | 69.6 | 14.8 | 14.1 | 6.53 | 11.9 | 4.8 | 5.53 | 102 | 106 | 108 | 113 | 78.7 | 20.3 | 27.9 | 13.2 | 19.3 | 6.51 | 8.7
NC(=O)c1cccc(-c2cc(Nc3ccc(OC(F)(F)F)cc3)ncn2)c1 | 88.6 | 99.5 | 96 | 93.9 | 108 | 101 | 97.2 | 94.1 | 103 | 84.5 | 81.4 | 85.8 | 91 | 93.4 | 95.7 | 90 | 103 | 103 | 85.8 | 90.3 | 84.1 | 80.5 | 91.7 | 94.7 | 84.3 | 86.1 | 93.3 | 92.8 | 88.2 | 89.1 | 94.2 | 79.6 | 91.7
COc1cc(NCc2ccc3nc(N)nc(N)c3c2C)cc(OC)c1OC | 90.2 | 91.7 | 98.9 | 95.1 | 93.5 | 98.4 | 89.5 | 44.4 | 36 | 34.2 | 15.9 | 79.3 | 88 | 80.9 | 85.7 | 84.7 | 89.3 | 93.5 | 83.2 | 99.6 | 86.9 | 9.99 | 87.2 | 88.5 | 86.2 | 91.1 | 91 | 107 | 94.5 | 81.1 | 68.8 | 37.9 | 16.6
CCCCCCNC(=O)N1\C=C(F)/C(=O)NC1=O | 117 | 136 | 124 | 127 | 128 | 137 | 122 | 124 | 118 | 94.6 | 79.9 | 111 | 119 | 136 | 109 | 109 | 114 | 129 | 127 | 122 | 115 | 83.9 | 124 | 136 | 124 | 122 | 110 | 128 | 130 | 120 | 110 | 82.3 | 69.6
O=C(O)CCCCCC(=O)NN=C1CCCC1 | 99.6 | 96 | 116 | 122 | 107 | 120 | 126 | 132 | 122 | 130 | 133 | 105 | 111 | 111 | 112 | 102 | 100 | 112 | 103 | 116 | 123 | 129 | 91.2 | 92.8 | 97.9 | 110 | 105 | 115 | 96.6 | 109 | 118 | 121 | 103
COC1=CC=C(C=C1)/C2=C(O)/C(=O)C3=C(O)C=C(O)C(=C3O2)CC=C(C)C | 105 | 120 | 122 | 114 | 132 | 117 | 115 | 127 | 124 | 104 | 130 |  |  |  |  |  |  |  |  |  |  |  |  |  |  |  |  |  |  |  |  |  | 
Cc1nc(-c2ccc(OCC(C)C)c(C#N)c2)sc1C(=O)O | 104 | 123 | 127 | 128 | 142 | 126 | 153 | 137 | 140 | 118 | 138 | 111 | 128 | 119 | 121 | 137 | 129 | 138 | 137 | 117 | 131 | 118 | 120 | 123 | 120 | 116 | 132 | 131 | 122 | 125 | 125 | 125 | 129
